The record followed here is patent US10889569B2, “Condensed ring group azacyclobutyl triazole derivative, preparation method therefor and use thereof in medicine” (Jiangsu Hengrui Medicine Co., Ltd., priority 2016, dated 2021).

The test addresses OTR (Rattus norvegicus (Rat), UniProt P70536). The test can be described thus: Oxytocin-induced rat uterine contraction model. Type of test: in vivo. As to conditions: female SD rats, 1 μg/kg OT i.v. On the procedure: The efficacy of OTR inhibitors (compound 2-10mpk, compound 2-30mpk and compound 2-100mpk) on oxytocin (OT)-induced rat uterine contraction model was evaluated by establishing a rat uterine contraction model.
Compound 2-100mpk: 221.0 mg of compound 2 was weighed, added with 5.40 ml of Cremophor RH40, 2.16 ml of Masine 35-1, 3.24 ml of polyethylene glycol 400 (PEG400) and 1.20 ml of ethanol respectively, and mixed well by ultrasonic vibration;
Compound 2-30mpk: 54.2 mg of compound 2 was weighed, added with 4.50 ml of Cremophor RH40, 1.80 ml of Masine 35-1, 2.70 ml of polyethylene glycol 400 (PEG400) and 1.00 ml of ethanol respectively, and mixed well by ultrasonic vibration;
Compound 2-10mpk: 1 ml of compound 2-100mpk solution was added with 9 ml of solvent (45% of Cremophor RH40, 18% of Masine 35-1, 27% of PEG400 and 10% of ethanol), and mixed well. […]
After completion of the experiment, the area under curve (AUC) of the uterine contraction pressure 5 minutes before and after the administration of the inducing agent was calculated respectively. The efficacy of the test compound was evaluated by calculating the ratio of the difference value in AUC before and after induction to the AUC before induction, and comparing with the difference value of the ratio after administration of the test compound. ΔAUC ratio=(AUC0−AUCT)/AUC0; […]

Sequence of OTR (P70536 whole entry): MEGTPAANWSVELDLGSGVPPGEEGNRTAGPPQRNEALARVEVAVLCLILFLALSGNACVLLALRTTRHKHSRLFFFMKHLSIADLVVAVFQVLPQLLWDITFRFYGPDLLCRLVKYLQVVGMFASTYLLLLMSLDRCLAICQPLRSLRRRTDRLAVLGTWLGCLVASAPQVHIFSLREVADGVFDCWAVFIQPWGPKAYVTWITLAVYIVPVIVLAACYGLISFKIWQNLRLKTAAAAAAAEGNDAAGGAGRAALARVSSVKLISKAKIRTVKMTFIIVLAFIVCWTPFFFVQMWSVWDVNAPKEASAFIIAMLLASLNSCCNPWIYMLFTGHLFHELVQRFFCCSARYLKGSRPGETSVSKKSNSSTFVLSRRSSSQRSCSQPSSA

With `COCc1nnc(N2CC(c3cccc4cc(F)ccc34)C2)n1-c1ccc(OC)nc1` [Example 2, 5-(3-(3-(6-Fluoronaphthalen-1-yl)azetidin-1-yl)-5-(methoxymethyl)-4H-1,2,4-triazol-4-yl)-2-methoxypyridine], the “Efficacy on OT-induced uterine contraction vs solvent control group” value by setting is: (30mpk p.o.) “can effectively block the downstream function (uterine contraction) of oxytocin receptors mediated by oxytocin”; (100mpk p.o.) “can effectively block the downstream function (uterine contraction) of oxytocin receptors mediated by oxytocin”.
